This passage reports IC50 results from patent publication US8685972B2, “Pyrimidine derivatives for treatment of alzheimer's disease” (Merck Sharp & Dohme Corp., priority 2008, dated 2014).

In this experiment the target is T1, γ-secretase (Homo sapiens, UniProt P49768).
T1 construct: Human SH-SY5Y neuroblastoma cells overexpressing the direct β-secretase substrate SPA4CT; endogenous in cells; host or cells: human SH-SY5Y neuroblastoma cells (stably overexpressing the substrate SPA4CT, induced with sodium butyrate)
Put plainly: Cell-Based γ-Secretase Assay (inhibition of Aβ(1-42) production, Meso Scale detection). Particulars: Human SH-SY5Y neuroblastoma cells overexpressing SPA4CT; overnight incubation; Aβ(42) in media. The protocol: Cell-Based γ-Secretase Assay
Human SH-SY5Y neuroblastoma cells overexpressing the direct β-secretase substrate SPA4CT were induced with sodium butyrate (10 mM) for 4 hours prior to plating. Cells were plated at 35,000 cells/well/100 μl in 96-well plates in phenol red-free MEM/10% FBS, 50 mM HEPES, 1% Glutamine and incubated for 2 hrs at 37° C., 5% CO2.
Compounds for testing were diluted into Me2SO to give a ten point dose-response curve. Typically 10 μl of these diluted compounds in Me2SO were further diluted into 182 μl dilution buffer (phenol red-free MEM/10% FBS, 50 mM HEPES, 1% Glutamine) and 10 μl of each dilution was added to the cells in 96-well plates (yielding a final Me2SO concentration of 0.5%). Appropriate vehicle and inhibitor controls were used to determine the window of the assay.
After incubation overnight at 37° C., 5% CO2, 25 μl and 50 μl media were transferred into a standard Meso avidin-coated 96-well plate for detection of Aβ(40) and Aβ(42) peptides, respectively. 25 μl Meso Assay buffer (PBS, 2% BSA, 0.2% Tween-20) was added to the Aβ(40) wells followed by the addition of 25 μl of the respective antibody premixes to the wells:
Aβ(40) premix: 1 μg/ml ruthenylated G2-10 antibody, 4 μg/ml biotinylated 4G8 antibody diluted in Origen buffer
Aβ(42) premix: 1 μg/ml ruthenylated G2-11 antibody, 4 μg/ml biotinylated 4G8 antibody diluted in Origen buffer
(Biotinylated 4G8 antibody supplied by Signet Pathology Ltd; G2-10 and G2-11 antibodies supplied by Chemicon)
After overnight incubation of the assay plates on a shaker at 4° C., the Meso Scale Sector 6000 Imager was calibrated according to the manufacturer's instructions. After washing the plates 3 times with 150 μl of PBS per well, 150 μl Meso Scale Discovery read buffer was added to each well and the plates were read on the Sector 6000 Imager according to the manufacturer's instructions.
LD50 and IC50 values for inhibition of Aβ(40) and Aβ(42) were calculated by nonlinear regression fit analysis using the appropriate software (eg. Excel fit). The total signal and the background were defined by the corresponding Me2SO and inhibitor controls.
By IC50 is commonly meant the concentration at which inhibition is half-maximal. A high value points to lower potency. In turn, `Cc1ccc(C(C)(C)C)cc1Nc1nc(N2CCC(Cc3ccncc3)CC2)ncc1F` [Example 22] registered an IC50 of 1500 to 3000 nM.

The compound `COc1cnc(N2CCC(Cc3ccncc3)CC2)nc1Nc1cc(N(C)C)ccc1C` [Example 6] registered an IC50 of 1500 to 3000 nM. Take `Cc1ccc(C(C)(C)C)cc1Nc1ccnc(N2CCC(Cc3ccncc3)CC2)n1` [Example 4]: the IC50 is 500 to 1500 nM. Then `CCOc1cc(C)c(Nc2nc(N3CCC(Cc4ccncc4)CC3)ncc2Cl)cc1C(C)C` [Example 11], with 500 to 1500 nM; and `Cc1cc(C)c(N(C)C)cc1Nc1ccnc(N2CCC(Cc3ccncc3)CC2)n1` [Example 10], with 1500 to 3000 nM; and `COC(=O)c1cc(Nc2cc(C(C)(C)C)ccc2C)nc(N2CCC(Cc3ccncc3)CC2)n1` [Example 18], with 500 to 1500 nM. Then `Cc1ccc(OC(C)C)cc1Nc1ccnc(N2CCC(Cc3ccncc3)CC2)n1` [Example 12], with 500 to 1500 nM.
